Laboratory results taken from US20260132132A1, “3A,4,5,6-TETRAHYDRO-1 H-PYRAZOLO[3,4-C]PYRIDIN-7(7AH)-ONE DERIVATIVES AS FACTOR XIIA INHIBITORS” (KALVISTA PHARMACEUTICALS LIMITED, priority 2022, published 2026).

Assays:
[1] = biological target: T1, Human Factor XIIa (hFXIIa) (Homo sapiens, UniProt P00748); assay: Determination of Human Factor XIIa (hFXIIa) inhibition, fluorogenic substrate IC50 assay; type: biochemical; details: fluorogenic substrate H-DPro-Phe-Arg-AFC at Km, 25° C., read-out: Human FXIIa IC50
T1 construct: purchased Enzyme Research Laboratories
T1 sequence (P00748 373-615 limits assumed): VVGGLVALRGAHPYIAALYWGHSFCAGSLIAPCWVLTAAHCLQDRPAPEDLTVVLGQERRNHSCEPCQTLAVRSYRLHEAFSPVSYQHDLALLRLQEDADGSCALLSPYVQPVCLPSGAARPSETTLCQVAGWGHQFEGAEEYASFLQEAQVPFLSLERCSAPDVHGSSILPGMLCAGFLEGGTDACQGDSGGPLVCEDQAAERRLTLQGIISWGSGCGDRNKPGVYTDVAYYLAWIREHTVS
T1 sequence (P00748 20-372 partner limits assumed): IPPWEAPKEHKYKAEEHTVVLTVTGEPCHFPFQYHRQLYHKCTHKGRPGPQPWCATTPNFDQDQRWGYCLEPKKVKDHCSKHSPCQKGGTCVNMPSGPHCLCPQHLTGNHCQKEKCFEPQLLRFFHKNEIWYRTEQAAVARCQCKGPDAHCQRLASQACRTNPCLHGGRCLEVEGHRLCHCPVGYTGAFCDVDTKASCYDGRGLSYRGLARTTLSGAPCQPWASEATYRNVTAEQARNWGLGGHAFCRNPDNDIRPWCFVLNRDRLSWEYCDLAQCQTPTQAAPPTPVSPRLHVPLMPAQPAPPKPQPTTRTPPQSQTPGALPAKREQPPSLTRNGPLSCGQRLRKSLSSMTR
Protocol: Determination of Human Factor XIIa (hFXIIa) inhibition
The Km for the cleavage of the substrate by hFXIIa was determined by standard transformation of the Michaelis-Menten equation, with subsequent inhibition assays performed at substrate Km concentration.

FXa = FXa (Homo sapiens, UniProt P00742); assay: Related protease inhibition: FXa, fluorogenic substrate; type: biochemical; details: fluorogenic substrate at Km, 25° C.; H1-H3 = % activity at 40 μM
Protocol: Human serine protease enzyme Plasma Kallikrein, KLK1, FXa, Plasmin, Thrombin and Trypsin were assayed for enzymatic activity using an appropriate fluorogenic substrate at Km concentration, FXIa at fixed substrate concentration of 100 μM and various concentrations of the test compound.

Sequence of FXa (P00742 235-488 limits assumed): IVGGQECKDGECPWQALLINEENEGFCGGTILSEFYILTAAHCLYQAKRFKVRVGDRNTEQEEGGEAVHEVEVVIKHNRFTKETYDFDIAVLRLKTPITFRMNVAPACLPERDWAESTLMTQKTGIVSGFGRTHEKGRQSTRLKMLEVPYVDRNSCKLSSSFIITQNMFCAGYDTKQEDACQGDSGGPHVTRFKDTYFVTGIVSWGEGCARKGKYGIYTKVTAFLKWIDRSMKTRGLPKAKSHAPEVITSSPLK
Sequence of FXa (P00742 41-179 partner limits assumed): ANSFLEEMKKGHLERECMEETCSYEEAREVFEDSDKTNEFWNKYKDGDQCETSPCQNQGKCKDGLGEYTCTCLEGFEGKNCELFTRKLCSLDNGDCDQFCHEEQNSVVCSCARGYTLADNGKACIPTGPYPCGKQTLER

| SMILES | IC50 [1] | IC50 (FXa) |
| --- | --- | --- |
| Cc1ccncc1CNC(=O)c1nn(-c2cccc(Cl)c2F)c2c1CCN(c1ccc3c(c1)CN(CCO)CC3)C2=O [Example 2002, 1-(3-Chloro-2-fluorophenyl)-6-(2-(2-hydroxyethyl)-1,2,3,4-tetrahydroisoquinolin-7-yl)-N-((4-methylpyridin-3-yl)methyl)-7-oxo-4,5,6,7-tetrahydro-1H-pyrazolo[3,4-c]pyridine-3-carboxamide] | 10 to 100 nM | > 40000 nM |
| Cc1ccncc1CNC(=O)c1nn(-c2cccc(Cl)c2)c2c1CCN(c1ccc3ccn(C)c(=O)c3c1)C2=O [Example 1212, 1-(3-chlorophenyl)-6-(2-methyl-1-oxo-1,2-dihydroisoquinolin-7-yl)-N-((4-methylpyridin-3-yl)methyl)-7-oxo-4,5,6,7-tetrahydro-1H-pyrazolo[3,4-c]pyridine-3-carboxamide] | 1000 to 3000 nM | > 40000 nM |
| CN1CCc2ccc(N3CCc4c(C(=O)NCC5CC5)nn(-c5cccc(Cl)n5)c4C3=O)cc2C1=O [Example 2020, 1-(6-Chloropyridin-2-yl)-N-(cyclopropylmethyl)-6-(2-methyl-1-oxo-1,2,3,4-tetrahydroisoquinolin-7-yl)-7-oxo-4,5,6,7-tetrahydro-1H-pyrazolo[3,4-c]pyridine-3-carboxamide] | 100 to 300 nM | > 40000 nM |
| Cc1cc(CNC(=O)c2nn(-c3cccc(Cl)c3)c3c2CCN(c2ccc4c(c2)C(=O)N(CCCO)CCO4)C3=O)nn1C [Example 1377, 1-(3-chlorophenyl)-N-((1,5-dimethyl-1H-pyrazol-3-yl)methyl)-6-(4-(3-hydroxypropyl)-5-oxo-2,3,4,5-tetrahydrobenzo[f][1,4]oxazepin-7-yl)-7-oxo-4,5,6,7-tetrahydro-1H-pyrazolo[3,4-c]pyridine-3-carboxamide] | 10 to 100 nM | 3000 to 10000 nM |
| O=C(NCc1ccccc1)c1nn(-c2cccc(Cl)c2)c2c1CCN(c1cccc(CN3CCCCC3)c1)C2=O [Example 1001, N-Benzyl-1-(3-chlorophenyl)-7-oxo-6-(3-(piperidin-1-ylmethyl)phenyl)-4,5,6,7-tetrahydro-1H-pyrazolo[3,4-c]pyridine-3-carboxamide] | 100 to 300 nM | > 40000 nM |
| O=C(NCc1ccncc1F)c1nn(-c2cccc(Cl)c2)c2c1CCN(c1ccc3c(c1)CN(CCO)CC3)C2=O [Example 1161, 1-(3-chlorophenyl)-N-((3-fluoropyridin-4-yl)methyl)-6-(2-(2-hydroxyethyl)-1,2,3,4-tetrahydroisoquinolin-7-yl)-7-oxo-4,5,6,7-tetrahydro-1H-pyrazolo[3,4-c]pyridine-3-carboxamide] | 10 to 100 nM | > 40000 nM |
| Cc1cc(CNC(=O)c2nn(-c3cccc(C#N)c3)c3c2CCN(c2ccc4c(c2)C(=O)N(C)CC4)C3=O)nn1C [Example 2012, 1-(3-cyanophenyl)-N-((1,5-dimethyl-1H-pyrazol-3-yl)methyl)-6-(2-methyl-1-oxo-1,2,3,4-tetrahydroisoquinolin-7-yl)-7-oxo-4,5,6,7-tetrahydro-1H-pyrazolo[3,4-c]pyridine-3-carboxamide] | 300 to 1000 nM | > 40000 nM |
| CN1CCc2ccc(N3CCc4c(C(=O)NCc5cc(C6CC6)n[nH]5)nn(-c5cccc(Cl)c5)c4C3=O)cc2C1=O [Example 1231, 1-(3-chlorophenyl)-N-((3-cyclopropyl-1H-pyrazol-5-yl)methyl)-6-(2-methyl-1-oxo-1,2,3,4-tetrahydroisoquinolin-7-yl)-7-oxo-4,5,6,7-tetrahydro-1H-pyrazolo[3,4-c]pyridine-3-carboxamide] | 100 to 300 nM | > 40000 nM |
| CN1CCc2ccc(N3CCc4c(C(=O)N[C@@H](CO)C5CC5)nn(-c5cccc(Cl)c5)c4C3=O)cc2C1=O [Example 1404, (R)-1-(3-chlorophenyl)-N-(1-cyclopropyl-2-hydroxyethyl)-6-(2-methyl-1-oxo-1,2,3,4-tetrahydroisoquinolin-7-yl)-7-oxo-4,5,6,7-tetrahydro-1H-pyrazolo[3,4-c]pyridine-3-carboxamide] | 100 to 300 nM | > 40000 nM |
| CN1CCc2ccc(N3CCc4c(C(=O)N[C@@H]5CCOC5)nn(-c5cccc(Cl)c5)c4C3=O)cc2C1=O [Example 1338, (R)-1-(3-chlorophenyl)-6-(2-methyl-1-oxo-1,2,3,4-tetrahydroisoquinolin-7-yl)-7-oxo-N-(tetrahydrofuran-3-yl)-4,5,6,7-tetrahydro-1H-pyrazolo[3,4-c]pyridine-3-carboxamide] | 300 to 1000 nM | > 40000 nM |
| Cc1nc2c(CNS(=O)(=O)C3CC3)nn(-c3cccc(Cl)c3)c2c(=O)n1-c1ccc2c(c1)CN(CCO)CC2 [Example 3007, N-[[1-(3-Chlorophenyl)-6-[2-(2-hydroxyethyl)-3,4-dihydro-1H-isoquinolin-7-yl]-5-methyl-7-oxopyrazolo[4,3-d]pyrimidin-3-yl]methyl]cyclopropanesulfonamide] | 300 to 1000 nM | 3000 to 10000 nM |
| Cc1cn(C)nc1CNC(=O)c1nn(-c2cccc(Cl)c2)c2c(=O)n(-c3ccc4c(c3)CN(C)CC4)c(C)nc12 [Example 3006, 1-(3-chlorophenyl)-N-((1,4-dimethyl-1H-pyrazol-3-yl)methyl)-5-methyl-6-(2-methyl-1,2,3,4-tetrahydroisoquinolin-7-yl)-7-oxo-6,7-dihydro-1H-pyrazolo[4,3-d]pyrimidine-3-carboxamide] | 10 to 100 nM | 1000 to 3000 nM |
| O=C(NCC1CC1)c1nn(-c2cccc(Cl)c2)c2c1CCN(c1ccc3c(c1)CN(CC1CC1)CC3)C2=O [Example 1036, 1-(3-chlorophenyl)-N-(cyclopropylmethyl)-6-(2-(cyclopropylmethyl)-1,2,3,4-tetrahydroisoquinolin-7-yl)-7-oxo-4,5,6,7-tetrahydro-1H-pyrazolo[3,4-c]pyridine-3-carboxamide] | 300 to 1000 nM | > 40000 nM |
| Cc1ccncc1CNC(=O)c1nn(-c2cccc(Cl)c2)c2c1CCN(c1ccc3c(c1)CN(CCO)C[C@@H]3C)C2=O [Example 1148, (R)-1-(3-Chlorophenyl)-6-(2-(2-hydroxyethyl)-4-methyl-1,2,3,4-tetrahydroisoquinolin-7-yl)-N-((4-methylpyridin-3-yl)methyl)-7-oxo-4,5,6,7-tetrahydro-1H-pyrazolo[3,4-c]pyridine-3-carboxamide] | 100 to 300 nM | 10000 to 40000 nM |
| CCCN1CCc2ccc(N3CCc4c(C(=O)NCC5CC5)nn(-c5cccc(Cl)c5)c4C3=O)cc2C1=O [Example 1211, 1-(3-chlorophenyl)-N-(cyclopropylmethyl)-7-oxo-6-(1-oxo-2-propyl-1,2,3,4-tetrahydroisoquinolin-7-yl)-4,5,6,7-tetrahydro-1H-pyrazolo[3,4-c]pyridine-3-carboxamide] | 300 to 1000 nM | > 40000 nM |
| COc1ccc(CNC(=O)c2nn(-c3cccc(Cl)c3)c3c2CCN(c2ccc4c(c2)CN(CCO)CC4)C3=O)cn1 [Example 1138, 1-(3-chlorophenyl)-6-(2-(2-hydroxyethyl)-1,2,3,4-tetrahydroisoquinolin-7-yl)-N-((6-methoxypyridin-3-yl)methyl)-7-oxo-4,5,6,7-tetrahydro-1H-pyrazolo[3,4-c]pyridine-3-carboxamide] | 10 to 100 nM | 3000 to 10000 nM |
| CCNC(=O)c1nn(-c2cccc(Cl)c2)c2c1CCN(c1ccc3c(c1)C(=O)N(CCO)[C@H](C)CO3)C2=O [Example 1392, (R)-1-(3-chlorophenyl)-N-ethyl-6-(4-(2-hydroxyethyl)-3-methyl-5-oxo-2,3,4,5-tetrahydrobenzo[f][1,4]oxazepin-7-yl)-7-oxo-4,5,6,7-tetrahydro-1H-pyrazolo[3,4-c]pyridine-3-carboxamide] | 3000 to 10000 nM | > 40000 nM |
| O=C(Cn1nc(-c2cccc(Cl)c2)c2c1CCN(c1ccc3c(c1)CN(CCO)CC3)C2=O)NCC1CC1 [Example 4002, 2-[3-(3-Chlorophenyl)-5-[2-(2-hydroxyethyl)-3,4-dihydro-1H-isoquinolin-7-yl]-4-oxo-6,7-dihydropyrazolo[4,3-c]pyridin-1-yl]-N-(cyclopropylmethyl) acetamide] | 1000 to 3000 nM | > 40000 nM |
| Cc1cc(CNC(=O)c2nn(-c3cccc(Cl)c3)c3c(=O)n(-c4ccc5c(c4)C(=O)N(CCO)CC5)c(C)nc23)nn1C [Example 3015, 1-(3-chlorophenyl)-N-((1,5-dimethyl-1H-pyrazol-3-yl)methyl)-6-(2-(2-hydroxyethyl)-1-oxo-1,2,3,4-tetrahydroisoquinolin-7-yl)-5-methyl-7-oxo-6,7-dihydro-1H-pyrazolo[4,3-d]pyrimidine-3-carboxamide] | 10 to 100 nM | > 40000 nM |
| O=C(NCC1CC1)c1nn(-c2cccc(Cl)c2)c2c1CCN(c1cc3c(cc1F)CCN(CCO)C3)C2=O [Example 1123, 1-(3-chlorophenyl)-N-(cyclopropylmethyl)-6-(6-fluoro-2-(2-hydroxyethyl)-1,2,3,4-tetrahydroisoquinolin-7-yl)-7-oxo-4,5,6,7-tetrahydro-1H-pyrazolo[3,4-c]pyridine-3-carboxamide] | 100 to 300 nM | > 40000 nM |
